# Assay results as given in patent US8008305B2, “TAAR1 ligands” (Hoffmann-La Roche Inc., priority 2007, dated 2011).
# Molecular target: T1, TAAR1 (Mus musculus, UniProt Q923Y8)
# T1 construct: expressed in transfected cells; host or cells: HEK293 cells (ATCC # CRL-1573), stably transfected with pIRESneo2 expression plasmid; membranes prepared
# Assay: Radioligand binding ([3H]-rac-2-(1,2,3,4-tetrahydro-1-naphthyl)-2-imidazoline) on membranes of HEK293 cells stably expressing TAAR1
# Conditions: TAAR1 binding assay; species not given; read-out: calculated Kd value of the radioligand
# Description: Construction of TAAR Expression Plasmids and Stably Transfected Cell Lines
# For the construction of expression plasmids the coding sequences of human, rat and mouse TAAR 1 were amplified from genomic DNA essentially as described by Lindemann et al.. The Expand High Fidelity PCR System (Roche Diagnostics) was used with 1.5 mM Mg^2+ and purified PCR products were cloned into pCR2.1-TOPO cloning vector (Invitrogen) following the instructions of the manufacturer. PCR products were subcloned into the pIRESneo2 vector (BD Clontech, Palo Alto, Calif.), and expression vectors were sequence verified before introduction in cell lines.
# HEK293 cells (ATCC # CRL-1573) were cultured essentially as described Lindemann et al. (2005). For the generation of stably transfected cell lines HEK293 cells were transfected with the pIRESneo2 expression plasmids containing the TAAR coding sequences (described above) with Lipofectamine 2000 (Invitrogen) according to the instructions of the manufacturer, and 24 hrs post transfection the culture medium was supplemented with 1 mg/ml G418 (Sigma, Buchs, Switzerland). After a culture period of about 10 d clones were isolated, expanded and tested for responsiveness to trace amines (all compounds purchased from Sigma) with the cAMP Biotrak Enzyme immunoassay (EIA) System (Amersham) following the non-acetylation EIA procedure provided by the manufacturer.
# Membrane Preparation and Radioligand Binding
# Cells at confluence were rinsed with ice-cold phosphate buffered saline without Ca^2+ and Mg^2+ containing 10 mM EDTA and pelleted by centrifugation at 1000 rpm for 5 min at 4° C. The pellet was then washed twice with ice-cold phosphate buffered saline and cell pellet was frozen immediately by immersion in liquid nitrogen and stored until use at −80° C. Cell pellet was then suspended in 20 ml HEPES-NaOH (20 mM), pH 7.4 containing 10 mM EDTA, and homogenized with a Polytron (PT 3000, Kinematica) at 10,000 rpm for 10 s. The homogenate was centrifuged at 48,000×g for 30 min at 4° C. and the pellet resuspended in 20 ml HEPES-NaOH (20 mM), pH 7.4 containing 0.1 mM EDTA (buffer A), and homogenized with a Polytron at 10,000 rpm for 10 s. The homogenate was then centrifuged at 48,000×g for 30 min at 4° C. and the pellet resuspended in 20 ml buffer A, and homogenized with a Polytron at 10,000 rpm for 10 s. Protein concentration was determined by the method of Pierce (Rockford, Ill.). The homogenate was then centrifuged at 48,000×g for 10 min at 4° C., resuspended in HEPES-NaOH (20 mM), pH 7.0 including MgCl2 (10 mM) and […] homogenized with a Polytron at 10,000 rpm for 10 s.
# Binding assay was performed at 4° C. in a final volume of 1 ml, and with an incubation time of 30 min. The radioligand [^3H]-rac-2-(1,2,3,4-tetrahydro-1-naphthyl)-2-imidazoline was used at a concentration equal to the calculated Kd value of 60 nM to give a bound at around 0.1% of the total added radioligand concentration, and a specific binding which represented approximately 70-80% of the total binding. Non-specific binding was defined as the amount of [^3H]-rac-2-(1,2,3,4-tetrahydro-1-naphthyl)-2-imidazoline bound in the presence of the appropriate unlabelled ligand (10 μM). Competing ligands were tested in a wide range of concentrations (10 pM-30 μM). […] Each experiment was performed in duplicate. All incubations were terminated by rapid filtration through UniFilter-96 plates (Packard Instrument Company) and glass filter GF/C, pre-soaked for at least 2 h in polyethylenimine 0.3%, and using a Filtermate 96 Cell Harvester (Packard Instrument Company). The tubes and filters were then washed 3 times with 1 ml aliquots of cold buffer B. Filters were not dried and soaked in Ultima gold (45 μl/well, Packard Instrument Company) and bound radioactivity was counted by a TopCount Microplate Scintillation Counter (Packard Instrument Company).
# T1 sequence (Q923Y8 whole entry): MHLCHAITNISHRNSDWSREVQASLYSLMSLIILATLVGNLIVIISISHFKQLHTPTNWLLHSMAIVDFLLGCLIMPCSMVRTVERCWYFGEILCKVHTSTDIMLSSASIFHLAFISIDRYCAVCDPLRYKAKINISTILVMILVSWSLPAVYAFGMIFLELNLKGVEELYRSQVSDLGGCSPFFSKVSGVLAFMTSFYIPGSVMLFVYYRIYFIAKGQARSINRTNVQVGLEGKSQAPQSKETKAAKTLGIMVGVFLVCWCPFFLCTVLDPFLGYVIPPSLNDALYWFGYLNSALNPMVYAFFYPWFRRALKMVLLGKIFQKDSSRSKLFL
row,Structure (SMILES),Kd [nM]
1,"c1ccc2c(c1)CCCC2C1=NCCN1 (racemic) [[^3H]-rac-2-(1,2,3,4-tetrahydro-1-naphthyl)-2-imidazoline, reference compound]",60

# Same assay, conditions: mouse TAAR1; radioligand at 60 nM, 4° C., 30 min incubation
row,Structure (SMILES),Ki [µM]
1,"CN1CCN(c2ncc(C(=O)NCCc3ccc(Oc4ccccc4)cc3)cc2Br)CC1 [Example 32, 5-Bromo-6-(4-methyl-piperazin-1-yl)-N-[2-(4-phenoxy-phenyl)-ethyl]-nicotinamide]",0.005
2,"CN1CCC(Oc2ccc(C(=O)NCCc3ccc(Oc4ccccc4)cc3)cn2)CC1 [Example 24, 6-(1-Methyl-piperidin-4-yloxy)-N-[2-(4-phenoxy-phenyl)-ethyl]-nicotinamide]",0.019
3,"CN1CCN(c2ccc(C(=O)NCCc3cccc(Cl)c3)cn2)CC1 [Example 7, N-[2-(3-Chloro-phenyl)-ethyl]-6-(4-methyl-piperazin-1-yl)-nicotinamide]",0.027
4,"CN1CCN(c2ccc(C(=O)NCCc3ccccc3)cn2)CC1 [A, 6-(4-methyl-piperazin-1-yl)-N-phenethyl-nicotinamide, reference compound]",0.044
5,CN1CCN(c2ccc(C(=O)NCc3ccc(Cl)cc3)cn2)CC1 [Example 2],0.013
6,"CN1CCN(c2ccc(C(=O)NCCc3ccc(OCc4ccccc4)cc3)cn2)CC1 [Example 15, N-[2-(4-Benzyloxy-phenyl)-ethyl]-6-(4-methyl-piperazin-1-yl)-nicotinamide]",0.006
7,"CN1CCN(c2ccc(C(=O)NCc3ccccc3)cn2)CC1 [Example 1, N-Benzyl-6-(4-methyl-piperazin-1-yl)-nicotinamide]",0.071
8,"CN1CCN(c2ccc(C(=O)NCCc3cn(C)c4ccccc34)cn2)CC1 [Example 18, N-[2-(1-Methyl-1H-indol-3-yl)-ethyl]-6-(4-methyl-piperazin-1-yl)-nicotinamide]",0.023
9,"CN1CCN(c2ccc(C(=O)NCCc3cccc(C(F)(F)F)c3)cn2)CC1 [Example 8, 6-(4-Methyl-piperazin-1-yl)-N-[2-(3-trifluoromethyl-phenyl)-ethyl]-nicotinamide]",0.01
10,"CN1CCN(c2ccc(C(=O)NCCc3cccc(Oc4ccccc4)c3)cn2)CC1 [Example 14, 6-(4-Methyl-piperazin-1-yl)-N-[2-(3-phenoxy-phenyl)-ethyl]-nicotinamide]",0.068
11,"O=C(NCCc1ccc(OCc2ccccc2)cc1)c1ccc(N2CCNCC2)nc1 [Example 30, N-[2-(4-Benzyloxy-phenyl)-ethyl]-6-piperazin-1-yl-nicotinamide]",0.028
12,"O=C(NCCc1ccc(Oc2ccccc2)cc1)c1cnc(N2CCNCC2)c(Br)c1 [Example 34, 5-Bromo-N-[2-(4-phenoxy-phenyl)-ethyl]-6-piperazin-1-yl-nicotinamide]",0.009
13,"COc1ccc(CCNC(=O)c2ccc(N3CCN(C)CC3)nc2)cc1 [Example 9, N-[2-(4-Methoxy-phenyl)-ethyl]-6-(4-methyl-piperazin-1-yl)-nicotinamide]",0.091
14,"O=C(NCCc1ccc(Oc2ccccc2)cc1)c1ccc(N2CCNCC2)nc1 [Example 28, N-[2-(4-Phenoxy-phenyl)-ethyl]-6-piperazin-1-yl-nicotinamide]",0.016
15,"COc1cccc(CCNC(=O)c2ccc(N3CCN(C)CC3)nc2)c1 [Example 10, N-[2-(3-Methoxy-phenyl)-ethyl]-6-(4-methyl-piperazin-1-yl)-nicotinamide]",0.049
16,"CN1CCN(c2ccc(C(=O)NCCC3CCCCC3)cn2)CC1 [Example 54, N-(2-Cyclohexyl-ethyl)-6-(4-methyl-piperazin-1-yl)-nicotinamide]",0.012
17,"CN1CCN(c2ncc(C(=O)NCCc3ccc(Cl)cc3)cc2Br)CC1 [Example 31, 5-Bromo-N-[2-(4-chloro-phenyl)-ethyl]-6-(4-methyl-piperazin-1-yl)-nicotinamide]",0.006
18,"CN1CCN(c2ccc(C(=O)NCCc3ccc(Oc4ccccc4)cc3)cn2)CC1 [Example 13, 6-(4-Methyl-piperazin-1-yl)-N-[2-(4-phenoxy-phenyl)-ethyl]-nicotinamide]",0.004
19,"O=C(NCCc1ccc(Cl)cc1)c1cnc(N2CCNCC2)c(Br)c1 [Example 33, 5-Bromo-N-[2-(4-chloro-phenyl)-ethyl]-6-piperazin-1-yl-nicotinamide]",0.019
20,"CN1CCN(c2ccc(C(=O)NCCc3ccc4c(c3)OCO4)cn2)CC1 [Example 11, N-(2-Benzo[1,3]dioxol-5-yl-ethyl)-6-(4-methyl-piperazin-1-yl)-nicotinamide]",0.043
21,"CN1CCN(c2ccc(C(=O)NCCc3ccc(Cl)cc3)cn2)CC1 [Example 6, N-[2-(4-Chloro-phenyl)-ethyl]-6-(4-methyl-piperazin-1-yl)-nicotinamide]",0.005
22,"CN1CCN(c2ccc(C(=O)NCC3CCCCC3)cn2)CC1 [Example 55, N-Cyclohexylmethyl-6-(4-methyl-piperazin-1-yl)-nicotinamide]",0.062
23,"CN1CCN(c2ccc(C(=O)NCCc3ccc(-c4ccccc4)cc3)cn2)CC1 [Example 12, N-(2-Biphenyl-4-yl-ethyl)-6-(4-methyl-piperazin-1-yl)-nicotinamide]",0.028
24,"O=C(NCCc1ccc(Cl)cc1)c1ccc(N2CCNCC2)nc1 [Example 26, N-[2-(4-Chloro-phenyl)-ethyl]-6-piperazin-1-yl-nicotinamide]",0.081
25,"O=C(NCCc1cccc(Oc2ccccc2)c1)c1ccc(N2CCNCC2)nc1 [Example 29, N-[2-(3-Phenoxy-phenyl)-ethyl]-6-piperazin-1-yl-nicotinamide]",0.071
